# Reference: patent EP1439177B1, “Antiviral activity and resolution of 2-hydroxymethyl-5-(5-fluorocytosin-1-yl)-1,3-oxathiolane” (Emory University, priority 1991, dated 1992)
# Read-outs that look alike come from different tables or passages of the source.
# Tests used:
# HIV = assay: microbe, parasite or virus in culture; format: cell-based; settings: Human immunodeficiency virus 1
# HIV-1 (strain LAV) = assay: microbe, parasite or virus in culture; format: cell-based; settings: Human immunodeficiency virus 1, PBMC
# Source text: It is often desirable to screen a number of racemic mixtures of nucleosides as a preliminary step to determine which warrant further resolution into enantiomerically enriched components and further evaluation of antiviral activity. The ability of nucleosides to inhibit HIV can be measured by various experimental techniques. The technique used herein, and described in detail below, measures the inhibition of viral replication in phytohemagglutinin (PHA) stimulated human peripheral blood mononuclear (PBM) cells infected with HIV-1 (strain LAV). The amount of virus produced is determined by measuring the virus-coded reverse transcriptase enzyme. The amount of enzyme produced is proportional to the amount of virus produced.
# • A. Three-day-old phytohemagglutinin-stimulated PBM cells (10^6 cells/ml) from hepatitis B and HIV-1 seronegative healthy donors were infected with HIV-1 (strain LAV) at a concentration of about 100 times the 50% tissue culture infectious dose (TICD 50) per ml and cultured in the presence and absence of various concentrations of antiviral compounds. • B. Approximately one hour after infection, the medium, with the compound to be tested (2 times the final concentration in medium) or without compound, was added to the flasks (5 ml; final volume 10 ml). AZT was used as a positive control. • C. The cells were exposed to the virus (about 2 x 10^5 dpm/ml, as determined by reverse transcriptase assay) and then placed in a CO2 incubator. HIV-1 (strain LAV) was obtained from the Center for Disease Control, Atlanta, Georgia. The methods used for culturing the PBM cells, harvesting the virus and determining the reverse transcriptase activity were those described by McDougal et al. (J. Immun. Meth. 76, 171-183, 1985) and Spira et al. (J. Clin. Meth. 25, 97-99, 1987), except that fungizone was not included in the medium (see Schinazi, et al., Antimicrob. Agents Chemother. 32, 1784-1787 (1988); Id., 34:1061-1067 (1990)). • D. On day 6, the cells and supernatant were transferred to a 15 ml tube and centrifuged at about 900 g for 10 minutes. Five ml of supernatant were removed and the virus was concentrated by centrifugation at 40,000 rpm for 30 minutes (Beckman 70.1 Ti rotor). The solubilized virus pellet was processed for determination of the levels of reverse transcriptase. Results are expressed in dpm/ml of sampled supernatant. Virus from smaller volumes of supernatant (1 ml) can also be concentrated by centrifugation prior to solubilization and determination of reverse transcriptase levels.
# human PBM cells [1] = assay: Uptake of radiolabeled FTC into human PBM cells; format: in vitro ADME; settings: 10 µM radiolabeled FTC, 2 to 24 hours; Figure 7
# Description: All studies were conducted in duplicate.
# in vitro [2] = settings: human, cem cells
# [3] = test system: peripheral human bone marrow cells; assay: Toxicity to peripheral human bone marrow cells; format: cell-based; settings: concentrations up to 50 µM
# in vivo [4] = settings: rhesus monkey, 33.3 mg/kg; for clearance: CLT, I.V. 33.3 mg/kg
# [5] = Growth inhibition of mitogen-stimulated uninfected human PBM cells, trypan blue exclusion; format: cell-based; settings: human, pbm cells
# [6] = Chronic oral treatment of rodents, toxicity; format: in vivo; settings: oral doses of 85 mg/kg per day for at least two months
# SIV = assay: microbe, parasite or virus in culture; settings: Simian immunodeficiency virus
# Description: (§1) Cell lines were obtained from either human donors, AIDS Research and Reference Reagent Program, NIH, Rockville, Maryland, ATCC, or the Red Cross. The CEM thymidine kinase deficient cells were prepared by sequential passage of CEM cells in the presence of 5-bromo-2'-deoxyuridine.
# HIV-1 = assay: microbe, parasite or virus in culture
# Description: as §1
# HIV-2 = assay: microbe, parasite or virus in culture; settings: Human immunodeficiency virus 2, PBMC
# Description: as §1
# FIV = assay: microbe, parasite or virus in culture; settings: Feline immunodeficiency virus, CRFK
# Description: as §1
# other cell lines = assay: Toxicity to other cell lines; format: cell-based; settings: concentrations up to 200 µM
# in vivo [7] = settings: rat, plasma, iv
# in vitro [8] = settings: african green monkey, vero cells
# human PBM cells [9] = assay: Egress of radiolabeled FTC from human PBM cells; format: in vitro ADME; settings: 48 hours after the removal of the extracellular drug
# Description: This study measures the time needed for intracellular levels of triphosphates to decline. Studies were conducted in duplicate. Uninfected cells (2 x 10^6 ml) were suspended in the appropriate medium supplemented with serum (10 ml per timepoint) and incubated at 37°C in a 5% CO2 incubator. The radiolabeled FTC concentration was 10 µM. After pulsing the cells with the labeled compound for 24 hours, the cells were thoroughly washed and then replenished with fresh medium without the antiviral drugs (0 hr). At 0, 2, 4, 6, 12, 24, and 48 hours (second incubation time), the cells were removed, and immediately extracted with 60% cold methanol/water. The extract was obtained by centrifugation and removal of the cell pellet. The extracts were lyophilized and then stored at -70°C. Prior to analysis, the material was resuspended in 250 microliters of HPLC buffer and immediately analyzed. Quantitation of intracellular parent drug and metabolic derivatives was conducted by HPLC, using either a Micromeritics or Hewlett-Packard model 1090 PHLC system with an anion exchange Partisel 10 SAX column (Whatman, Inc.), at a flow rate of 1 ml/min, 1 kpsi pressure, with UV detection at 262 nm. The mobile phase consisted of deionized water (A), 2 mM NaH2PO4/16 mM NaOAc (pH = 6.6) (B), 15 mM NaH2PO4/120.2 mM NaOAc (pH = 6.6) (C), and 100 mM NaH2PO4/800 mM NaOAc (pH = 6.6) (D). […]
# HIV-RT = HIV-RT (Human immunodeficiency virus type 1 group M subtype B, UniProt P04585); assay: DNA chain termination by sequencing analysis; format: biochemical
# Description: (§2) Toxicity and pharmacokinetic studies confirm the usefulness of FTC as an antiviral agent for pharmaceutical administration. FTC and its enantiomers are nontoxic to peripheral human bone marrow cells at concentrations up to 50 µM and other cell lines at concentrations up to 200 µM. FTC-TP is a major intracellular metabolite in PBMC and HepG2 cells.
# [10] = target: HIV-1 reverse transcriptase (RT); assay: Competitive inhibition of HIV-1 reverse transcriptase, poly(I)oligo(dC) template-primer; format: biochemical; settings: read-out: K1 (affinity), competitive inhibition
# Description: as §2
smiles,measurement,setting,value
"Nc1nc(=O)n([C@@H]2CS[C@H](CO)O2)cc1F (racemic) [(±)-FTC, (±)-β-D.L-2-hydroxymethyl-5-(5-fluorocytosin-1-yl)-1,3-oxathiolane]",IC50,HIV,520 nM
same,EC50,HIV-1 (strain LAV); read-out: Antiviral EC50,10 nM
same,EC50,HIV-1 (strain LAV); read-out: activity in PBM cells,~10 nM
same,uptake in human lymphocytes,human PBM cells [1],readily taken up
same,CC50,in vitro [2],> 100000 nM
same,toxicity,[3],nontoxic
same,Vd,in vivo [4]; iv,2 L/kg
same,clearance,"in vivo [4]; iv, Mean of three monkeys",24.8 mL/min/kg
same,clearance,"in vivo [4]; iv, individual monkeys RUh, RMi, RJd",29 mL/min/kg
same,bioavailability,"in vivo [4]; po, F (bioavailability), P.O. 33.3 mg/kg, individual monkeys RUh, RMi, RJd",80%
same,CC50 at 144 h,[5],> 100000 nM
same,toxicity of chronic treatment,[6],not toxic
same,EC50,SIV,4600 nM
same,EC50,SIV; C8166,< 8000 nM
same,EC50,"HIV-1; Human immunodeficiency virus 1, CEM (HTLV1118) NIH",90 nM
same,EC50,"HIV-1; Human immunodeficiency virus 1, CEM (LAV-1)",80 nM
same,EC50,"HIV-1; Human immunodeficiency virus 1, CEM-TK(-), CEM-TK^(-) (LAV-1)",26 nM
same,EC50,"HIV-1; Human immunodeficiency virus 1, MT2 (HTLV1118)",890 nM
same,EC50,"HIV-1; Human immunodeficiency virus 1, PBMC, PBMC (LAV-1)",27 nM
same,EC50,HIV-2,3.8 nM
same,EC50,FIV,≤ 1000 nM
same,toxicity,other cell lines,nontoxic
same,clearance,in vivo [7]; 10 mg/kg,16.5 mL/min/kg
same,half-life,in vivo [7]; 10 mg/kg,45.4 min
same,MRT,in vivo [7]; 50 mg/kg,48 min
same,clearance,in vivo [7]; 50 mg/kg,14.6 mL/min/kg
same,half-life,in vivo [7]; 50 mg/kg,48.9 min
same,clearance,in vivo [7]; 100 mg/kg,13.8 mL/min/kg
same,half-life,in vivo [7]; 100 mg/kg,58.1 min
same,CC50,in vitro [8],> 100000 nM
Nc1nc(=O)n([C@@H]2CS[C@H](COP(=O)(O)OP(=O)(O)OP(=O)(O)O)O2)cc1F (racemic) [FTC-TP],intracellular concentration,human PBM cells [9],1 to 5 µM
same,DNA chain terminator (C-stops),HIV-RT,potent DNA chain terminator
same,Ki,[10],200 nM
